Assay results reported in paper PMC8224775, “Five Tetramic Acid Derivatives Isolated from the Iranian Fungus Colpoma quercinum CCTU A372” (Biomolecules, 2021).
Read-outs that look alike come from different tables or passages of the source.

Tests used:
Test in all cases: 5-day MTT cytotoxicity assay
[1] = tested on: mouse fibroblast L-929; format: cell-based; details: L-929, 5-day MTT assay
Description: (§1) Cytotoxicity of compounds 1‒5 was initially determined against two cancer cell lines (mouse fibroblasts L-929 and human endocervical adenocarcinoma KB-3.1) by using a 5-day MTT assay according to an established procedure.
(§2) In 96-well flat-bottom microtiter plates, cell lines with serial dilution of the test compounds (final range: 37 to 0.6 × 10^−3 µg/mL) were incubated for five days. After five days, the cells were dyed using 3-(4,5-dimethyl-2-thiazolyl)-2,5-diphenyl-2H-tetrazolium bromide (MTT), which is only converted to its purple formazan derivative by living cells. The half-maximum inhibitory concentration (IC50 in µM) was calculated via the colorimetric method in a microplate reader using absorption at 595 nm. In addition, when an inhibition with an IC50 < 50 µM was observed, other cell lines were subjected to the test compounds to evaluate their further cytotoxicity: PC-3 (human prostate adenocarcinoma), SK-OV-3 (human ovary adenocarcinoma), MCF-7 (human breast adenocarcinoma), A-431 (human squamous carcinoma), and A549 (human lung carcinoma). A detailed procedure, including the colorimetric method to determine the cell viability, can be found in the SI.
(§3) Protocol: Cytotoxicity Assay
(§4) The assay was co nducted in 9 6-well flat -botto m microtiter plates using the parameters summarised in T able S2 and as described in [S2]. Cell l ines L-929 and KB-3.1 were incubated at 37 °C under 10 % CO2 in Gibco™ DMEM medium (T her mo Fisher Scientific, Waltham, M A, USA) supplemented with 10 % FBS. A microtiter plate was filled wit h 120 μ L o f this suspensio n (50,000/mL) in each well. Seperatel y, a nother microti ter plate wa s filled wit h 100 μL of gro wth medium in each well. Then, 50 μ L of the test compound solutions (1 mg/mL) were given to wells of the first column in two replicates (one compound per row). Cells without additives and MeOH were used as nega tive controls. Starting from the first column, 50 μ L of the solutions were gradually transferred to the next column, the contents thoroughly mixed, and 50 μL transferred to the following column. This created a serial dilution of the test compounds ranging from 333 μ g/mL to 1.9×10-3 μg/ mL. T he re mai ni ng 50 μ L after column twelve were discarded. From this microtiter plate, 60 μ L of the solutions fro m 111 μ g/mL to 1.9×10-3 μg/mL we r e give n to t he firs t p late co ntai ni ng 1 2 0 μ L of the cell suspensions (i.e. the highest co ncentration 333 μ g/ mL wa s no t used). T his resul ted in fi nal compo und concentratio ns rangi ng fro m 37 μ g/mL to 0.6×10-3 μg/ mL. After 5 days o f incubatio n under the aforementioned incubatio n conditions, the half maximu m inhibitory co ncentrations (IC50) were deter mined using a colorimetric tetrazolium d ye MT T assa y [S3]. For this, 20 μ L of a 5 mg/mL solution of 3-(4,5-dimethyl-2 -thiazolyl) -2,5-diphenyl-2H-tetrazolium br omide (MTT) were added to each well and incubated for two hours at 37 °C. T hen, the microtiter plate was ce ntrifuged (3,000 rpm, 5 min) and the supernatant removed by holding the plate upside-down and gentle shaking. Afterwards, the wells were washed using 100 μ L of phosphate buffered saline (PBS). T he plate was a gain ce ntrifuged a nd the supernata nt re mo ved as described before.
(§5) T hen, 1 0 0 μ L of an isopropanol:HCl solution (1L isopropanol+4 mL HCl 37 % w/v) were added to the wells. After incubating for 10 min at ambient temperature, the absorption of the wells at 595 nm was measured with an Infinite® 200 Pro microplate reader (TECAN, Männedorf, Schweiz). The absorption values of the cells without additives were averaged and set to 100 % cell viability. Then, the means of absorption of the two compound replicates were set in relation to the blank media. T hese percentage values were plotted against the concentratio n range (37 μ g/mL to 0.6×10−3 μg/ mL). T he IC50 value was r ead fro m the plot (in μ g/ mL) a nd the uni ts conversed […]
to μM. […]

[2] = tested on: endocervical adenocarcinoma KB-3.1; format: cell-based, human; details: KB-3.1, 5-day MTT assay
Description: as §1, §2, §3, §4, §5
to μM. […]

[3] = tested on: human breast adenocarcinoma MCF-7; format: cell-based; details: MCF-7, 5-day MTT assay, read-out: IC50
Description: as §1, §2, §3, §4, §5
to μM. […]

[4] = tested on: human lung carcinoma A-549; format: cell-based; details: A549, 120 h, A-549, 5-day MTT assay, read-out: IC50
Description: as §1, §2, §3, §4, §5
to μM. […]

[5] = tested on: human prostate cancer PC-3; format: cell-based; details: 120 h, PC-3, 5-day MTT assay, read-out: IC50
Description: as §1, §2, §3, §4, §5
to μM. […]

[6] = tested on: ovarian carcinoma SK-OV-3; format: cell-based, human; details: SK-OV-3, 5-day MTT assay, read-out: IC50
Description: as §1, §2, §3, §4, §5
to μM. […]

[7] = tested on: squamous cell carcinoma A-431; format: cell-based, human; details: A-431, 5-day MTT assay, read-out: IC50
Description: as §1, §2, §3, §4, §5
to μM. […]

With CC1=CC2CC(C)CCC2C2(C)C(=O)OC(C(=O)O)C(C)C12 (stereo not drawn) [compound 3, Colposetin C] the IC50 [1] was “not active” and the IC50 [2] was “not active”.
For CC(=O)OC(C(=O)O)C(C)C1C(C)=CC2CC(C)CCC2C1(C)C(O)=C1C(=O)C(C)N(C)C1=O (stereo not drawn) [compound 1, Colposetin A], the IC50 [1] was “not active” and the IC50 [2] was “not active”.
CC(C=CCC(C)CCC=C(C)C(=O)C1=C(O)C(C)N(C)C1=O)=CC(C)C(O)C(=O)O (stereo not drawn) [compound 4, Colpomenoic acid A] was tested, and the IC50 [1] was “not active” and the IC50 [2] was “not active”.
In the case of CC(C=CCC(C)C=CC=C(C)C(=O)C1=C(O)C(C)N(C)C1=O)=CC(C)C(O)C(=O)O (stereo not drawn) [compound 5, Colpomenoic acid B], the IC50 [1] is reported as “not active” and the IC50 [2] is reported as “not active”.
Compound CCC(C(=O)O)C1C(C)=CC2CC(C)CCC2C1(C)C(O)=C1C(=O)C(C)N(C)C1=O (stereo not drawn) [compound 2, Colposetin B] has an IC50 ([3]; Homo sapiens, MCF7, 120 h) of 6.2 to 8.1 µM, an IC50 [3] of 7.9 µM and an IC50 ([1]; Mus musculus, L929, 120 h, read-out: IC50) of 57.5 µM. For the same compound, the IC50 [4] was 16.5 µM, the IC50 [5] was 17.9 µM and the IC50 ([6]; Homo sapiens, SK-OV-3, 120 h) was 6.2 to 8.1 µM. It also gave an IC50 [6] of 8.1 µM, an IC50 [7] of 6.2 µM and an IC50 ([7]; Homo sapiens, A-431, 120 h) of 6.2 to 8.1 µM. It also gave an IC50 ([2]; Homo sapiens, KB 3-1, 120 h, read-out: IC50) of 5.7 µM.
